From US20220409510A1, “Polypeptides And Methods For Improving Skin Conditions” (Interk Peptide Therapeutics Limited, priority 2018, published 2022) come the findings set out here.

Non-standard residues stand in square brackets, D forms with d. No end group written: not given here.

Series [1] has as its system CPDs in human skin explants. Briefly: CPD formation in human skin explants after UV-irradiation. To be noted: 3 hrs post irradiation/treatment; Calcitriol 1 nM; IK34720 50, 250 or 500 uM; FIG. 12. Type of series: cell-based. The method, then: Human skin removed at elective surgery was cleaned, dissected and cut into pieces of approx. 5 mm×5 mm. Each piece was placed in a well of a 96 well plate, with individual plates prepared to assess the effects 3 hrs post treatment. All samples were performed in triplicate for each treatment. Skin was subjected to UV-radiation from solar-simulated UV source for 1.5 h (UVR), or non-irradiation (SHAM). Given that human skin is thicker than mouse skin, human skin explants were exposed to a radiation dose three times higher than that used for mouse skin, i.e., 20 J/cm2 versus 7 J/cm2, respectively, and the output spectrum of the laboratory solar simulator has previously been reported (Rybchyn MS et al, J Invest Dermatol. 2018 May; 138(5):1146-1156) and treated immediately after with a vehicle control, Calcitriol (1 nM) or the polypeptide IK34720 (SEQ ID NO: 3) at concentrations of 50 μM, 250 μM or 500 uM.
Samples harvested at 3 hrs were fixed, section, stained and quantified as described in Example 5.

Another series deals with MMP1. Briefly: MMP1 expression in human skin explants after UV-irradiation (immunohistochemistry). To be noted: 3 hrs post irradiation/treatment; Calcitriol 1 nM; IK34720 50, 250 or 500 uM; FIG. 17. Type of series: cell-based. The method, then: The effect of the polypeptide IK34720 (SEQ ID NO: 3) on MMP-1 activity in human skin was evaluated using the following protocol.
FIGS. 17 and 18 illustrate the effect of the polypeptide IK34720 (SEQ ID NO: 3) on MMP1 expression, in accordance with the following protocol.
Human skin (2× human explant tissues) removed at elective surgery was cleaned, dissected and cut into pieces of approx. 5mm×5mm. Each piece was placed in a well of a 96 well plate, with individual plates prepared to assess the effects 3 hrs post treatment. Skin was subjected to UV-radiation from solar-simulated UV source for 1.5 h (UVR), or non-irradiation (SHAM), and treated immediately after with a vehicle control, Calcitriol (1 nM) or the polypeptide IK34720 (SEQ ID NO: 3) at concentrations of 50 μM, 250 μM or 500 uM. In FIG. 17, IK50, IK250 and IK500 as μM concentrations refers to 15 μg, 75 μg and 150 μg of IK34720 per 120 μL culture medium/explant, respectively.
Samples harvested at 3 hrs were fixed, sectioned, immunohistochemically stained for MMP1 and quantified for MMP1 expression, by expressing epidermal area stained for MMP1 as a function of total epidermal area examined.

The next series relates to dermal fibroblasts. Briefly: TBARS lipid peroxidation assay in UV irradiated dermal fibroblasts. To be noted: highest concentration (5 μM) of peptide; FIG. 19. Type of series: cell-based. The method, then:
The ability of the polypeptide RSKAKNPLYRRRRRRRRR to alter UV-induced oxidative damage of cell-derived lipids was examined using the TBARS thiobarbituric acid-reactive substances (TBARS) lipid peroxidation assay.
After irradiation or sham-irradiation of dermal fibroblasts, supernatants (900 μL) were collected. In brief, 90 μL of butylated hydroxytoluene (2% w/w in ethanol) was added and samples kept frozen (−20° C.) until the TBARS assay. Petri dishes were washed twice with 1 mL of HBSS, cells scraped in 600 μL of water and 60 μL of 0.5% aqueous Triton X100 added to this solution, for protein determination carried out by the Lowry method (Lowry OH et al, J. Biol. Chem., 1951, 193:265-275). TBARS were fluorometrically assayed as described (Morlière P et al, Biochim. Biophys. Acta, 1991, 1084:261-268). Briefly, thawing samples were heated in the presence of thiobarbituric acid in acidic conditions, and TBARS extracted with 1-butanol and fluorometrically quantified (λexc=515 nm and λem=550 nm). Tetraethoxypropane, which quantitatively yields the malondialdehyde-thiobarbituric acid adduct in the assay conditions, was used for calibration. TBARS values, expressed in malondialdehyde (MDA) equivalents, were normalized to the cell protein for each Petri dish. Each TBARS determination was performed in triplicate (e.g., with three Petri dishes per data point).

The subject of series [2] is wound (skin punch, ID 12 mm). Description: Murine wound model, percentage closure of the wound. Type of series: in vivo, ICR mice. To be noted: topical 10 ug per mouse daily for 10 consecutive days. From the text:
FIGS. 1 and 2 illustrate the effect of polypeptides IK34720 (SEQ ID NO: 3—RSKAKNPLYRRRRRRRRR) (FIG. 1) and the dextro-reverso sequence IK236770 (SEQ ID NO: 4—rrrrrrrrrylpnkaksr) (FIG. 2), on wound healing over 10 days in a murine wound model in accordance with the following protocol.
Three groups of 8 male ICR mice with a mean weight of 22 g (±2 g) were used in the present study. The animals were housed in individual cages during the study. Under isoflurane gas anaesthesia, the shoulder and back region of each animal was shaved and a sharp punch (ID 12 mm) was used to induce a wound by removing the skin, including panniculus carnosus and adherent tissues on Day 1.
Following induction of the wound the polypeptides IK34720 and IK236770 were topically administered to the site of the wound at a dosage of 10 μg per animal. […] An additional group which comprised the administration of Phosphate buffered Saline (PBS) at pH 7.4 was used as a negative control.
The wound healing was analysed on Days 5, 7, 9 and 11 by tracing the periphery of the wound onto clear plastic sheets with the wound area calculated by an Image analyzer ProPlus (Media Cybernetics, Version 4.5.0.29. The percentage closure of the wound (%) was calculated. Percentage closure of the wound was determined on 5, 7, 9 and 11. ANOVA and Dunnett's test were applied to test significant significance between the treated groups (peptide and positive control groups) and the negative control group at each time point of measurement. Differences were considered statistically significant at P<0.05, and are indicated by *.

Series [3] deals with T1, polypeptide IK34720 (RSKAKNPLYRRRRRRRRR).
T1 chain: RSKAKNPLYRRRRRRRRR

Regarding `C=C1/C(=C\C=C2/CCC[C@]3(C)[C@@H]([C@H](C)CCCC(C)(C)O)CC[C@@H]23)C[C@@H](O)C[C@@H]1O` [Calcitriol, 1,25-dihydroxyvitamin D3, reference compound], the “cells having CPDs (stained cells)” value in series [1] is “fewer stained cells”. Further, the “cells staining for MMP-1” value in the series on MMP1 was “fewer stained cells”. Also, in the series with dermal fibroblasts, the “significant difference in TRS (TBA reactive substances) between Sham and UV irradiation” value is reported as “not seen”.
As to `CCNC(=O)[C@H]1O[C@@H](n2cnc3c(N)nc(NCCc4ccc(CCC(=O)O)cc4)nc32)[C@H](O)[C@@H]1O` [CGS-21680, reference compound], the wound closure percentage result in series [2] (Day 5 to Day 11, vs negative control (PBS)) is listed as “increase wound healing compared to the negative control”.
For “rrrrrrrrrylpnkaksr ([dR][dR][dR][dR][dR][dR][dR][dR][dR][dY][dL][dP][dN][dK][dA][dK][dS][dR]; also: retro-inverso) [IK236770]”, the “wound healing (wound closure % percentage)” value in series [2] (day 5, vs negative control) is listed as “statistically significant increase in wound healing”.

B1: Human rheumatoid synovial fibroblast MMP-1 proenzyme, activated with APMA (protein)
chain: FVLTEGNPRWEQTHLTYRIENYTPDLPRADVDHAIEKAFQLWSNVTPLTFTKVSEGQADIMISFVRGDHRDNSPFDGPGGNLAHAFQPGPGIGGDAHFDEDERWTNNFREYNLHRVAAHELGHSLGLSHSTDIGALMYPSYTFSGDVQLAQDDIDGIQAIYGRSQNPVQPIGPQTPKACDSKLTFDAITTIRGEVMFFKDRFYMRTNPFYPEVELNFISVFWPQLPNGLEAAYEFADRDEVRFFKGNKYWAVQGQNVLHGYPKDIYSSFGFPRTVKHIDAALSEENTGKTYFFVANKYWRYDEYKRSMDPGYPKMIAHDFPGIGHKVDAVFMKDGFFYFFHGTRQYKFDPKTKRILTLQKANSWFNCRKN
On to B1, for which the “MMP-1 activity in vitro: amount of Mca-Pro-Leu-Gly formed from the fluorogenic substrate Mca-Pro-Leu-Gly-Leu-Dap-Ala-Arg, read spectrofluorimetrically at 340 nm/400 nm” value in series [3] is recorded as “inhibits MMP-1 activation in a dose dependent manner”.
